Where two headings read alike, the source gives them in different places.
Columns and labels:
Rh30-Myr-p110γ cells = assay: Akt phosphorylation in isogenic Rh30-Myr-p110 cells (Western blot); format: cell-based; details: Homo sapiens, serum-free 12 h, compound 1 h, band intensity, mean of three experiments
Source text: To assess the selectivity of X-370 in the context of an isogenic cellular background, we generated a panel of Rh30 human rhabdomyosarcoma cell lines each of which stably expresses a single myristoylated (Myr)-epitope tagged p110 human class I PI3K catalytic subunit, termed as Rh30-Myr-p110α, Rh30-Myr-p110β, Rh30-Myr-p110γ or Rh30-Myr-p110δ. In these cells, endogenous PI3K is not activated under serum-free culture conditions, whereas the ectopically expressed p110 isoforms are membrane-anchored and constitutively active due to myristoylation at N-terminal. Utilizing this cell panel, isoform-specific PI3K activity can be determined for any given inhibitor[25]. These cells were treated with X-370 and phosphorylated Akt was detected as the readout of PI3K activity. X-370 inhibited phosphorylation of Akt at both Thr308 and Ser473 in a dose-dependent manner in four tested cell lines (Figure 2A). […] Similar property was also observed in CAL-101 (Figure S2).
Cell lysates were probed with indicated antibodies. The IC50 values were calculated based on relative band intensity measured with ImageQuant™ TL (GE Healthcare Life Sciences, Piscataway, NJ) (B). Data shown are mean values from three independent experiments. (C, D, E, F) X-370 blocked stimuli-triggered PI3Kδ activation. MEF cells and THP-1 were starved in serum-free medium for 12 h or 4 h respectively and X-370 were added for an additional 1 h treatment following stimulation of IGF-1 at 100 ng/ml for MEF cells (C), LPA at 10 μM for MEF cells (D), MCP-1 at 100ng/ml for THP-1 (E) and M-CSF at 50 ng/ml for THP-1 (F). Similar results were derived from 3 independent experiments. TEXT PRINTED IN THE PICTURE: (B) X-370: IC50 (μM) in Rh30-Myr-p110s, Akt pT308, PI3Kα: 0.68; IC50 (μM) in Rh30-Myr-p110s, Akt pT308, PI3Kβ: 0.4; IC50 (μM) in Rh30-Myr-p110s, Akt pT308, PI3Kγ: 0.46; IC50 (μM) in Rh30-Myr-p110s, Akt pT308, PI3Kδ: 0.032; IC50 (μM) in Rh30-Myr-p110s, Akt pS473, PI3Kα: 0.53; IC50 (μM) in Rh30-Myr-p110s, Akt pS473, PI3Kβ: 0.29; IC50 (μM) in Rh30-Myr-p110s, Akt pS473, PI3Kγ: 0.23; IC50 (μM) in Rh30-Myr-p110s, Akt pS473, PI3Kδ: 0.02 DOUBTS OF THE COPYIST ABOUT THIS PICTURE: Panel B prints no substance label in the table itself; the label X-370 is taken from the other panels of the same picture, where it is the only substance printed. […]
Cells were treated as indicated conditions and then subjected to lysate to perform standard Western blot as described previously1. Briefly, whole-cell lysates and SDS-loading buffer diluted cell fractions were analyzed on SDS-PAGE gels. Transfer to nitrocellulose membranes, nonfat milk blocking, probing with indicated primary antibodies and the corresponding HRP-conjugated second antibodies.
Chemiluminescence were performed and captured using ImageQuant LAS 4000 (GE healthcare Life Sciences, Piscataway, NJ, USA) and band intensity was measure both with ImageQuant™ TL (GE Healthcare Life Sciences) 2. […]
(also on this page, place not known: PI3Kδ -dependent MEK1/2 - B -cell previously 1. whole -cell SDS -loading SDS -PAGE HRP -conjugated (G E A B Val828 Trp760 Thr750 Met752 Tyr813 affinity pocket specificity pocket hinge Glu826 CAL-101 X-370) […]
(1 picture or pasted object on this page, not shown here)

Raji cells = assay: Annexin V-FITC/PI apoptosis assay (FACS); format: cell-based, human; details: 72 h
Source text: Figure 3 PI3Kδ inhibition led to blockade of B cell leukemia cells proliferation via induction of cell cycle arrest and apoptosis Raji cells treated with X-370 for indicated times and at serial diluted concentrations were subjected to Annexin V-FITC/PI staining (A) and PI staining (B) and FACS analysis to show cell apoptosis and cell cycle distribution respectively. (C) X-370 inhibited proliferation of human leukemia primary cells. Freshly isolated human primary mononuclear cells from bone marrow samples of patients were treated with X-370 for 72 h and cell viability was assayed using CCK-8 assay. IC50s of each sample were plotted where 10 μM was assigned to specimens with IC50 >10 μM. Each symbol represents an individual patient sample. […]
Apoptosis was measured with annexin V–fluorescein isothiocyanate (FITC) /Propidium iodide (PI) kit (KeyGEN Biotech, Nanjing, China) as previously described. Fluorescence was acquired with a FACSCalibur instrument (BD Biosciences, CA) and analyzed using BD CellQuest Pro software.

IC50 (Rh30-Myr-p110γ cells; read-out: IC50 (μM) in Rh30-Myr-p110s, Akt pS473, PI3Kγ): 0.23 µM
IC50 (Rh30-Myr-p110γ cells; read-out: IC50 (μM) in Rh30-Myr-p110s, Akt pT308, PI3Kγ): 0.46 µM
Structure (SMILES): O=C(N1CCCC1)N1CCC(n2cnc3c(-n4c(C(F)F)nc5ccccc54)nc(N4CCOCC4)nc32)CC1 [X-370]
cells that underwent apoptosis (Raji cells; 10 μM): about 28%
concentration at which apoptotic cells were detectable (Raji cells): ≥ 5 µM

Reference: PMC4279406, “Simultaneous targeting of PI3Kδ and a PI3Kδ-dependent MEK1/2-Erk1/2 pathway for therapy in pediatric B-cell acute lymphoblastic leukemia” (Oncotarget, 2014)
